This is an account of results in patent US9255272B2, “Use of inhibitors of leukotriene B4 receptor BLT2 for treating asthma” (Korea University Research & Business Foundation, priority 2007, dated 2016).

By IC50 is commonly meant the concentration that gives 50% inhibition.

Data set [1] has as its target eosinophil membranes (LTB4 binding). The conditions noted are these: read-out: IC50 for inhibition of the binding of radiolabeled LTB4 to eosinophil membranes; cited from earlier work.
Another data set concerns eosinophil. The note with it: concentration of 10 μM; cited from earlier work.
In a further data set the test system is BLT1 mRNA. In words: BLT1 mRNA level in lung of OVA-challenged mice (semiquantitative RT-PCR). It is filed as in vivo, mouse. The note with it: C57BL/6 mice, 1.6 mg/kg i.v. 24 hr and 1 hr before 10% OVA challenge. The protocol: Female BALB/c mice and C57BL/6 mice (7 weeks old; 18-20 g) were obtained from Orientbion Inc. (Seoungnam, Korea). Sensitization and challenge were carried out as described previously with some modification (28). Briefly, female C57BL/6 mice (7 weeks old; 18-20 g) were immunized by intraperitoneal (i.p.) injection of 200 μg ovalbumin (OVA) emulsified in 2.5 mg of adjuvant aluminum hydroperoxide gel (alum) (Pierce, Rockford, Ill.). A second i.p. injection of 20 μg OVA adsorbed onto alum (2.5 mg) was administered 10 days later. After an additional 10 days, mice were exposed to an aerosol of 1% OVA in saline for 30 min daily on 3 consecutive days. On day 25, mice were finally challenged by provocation with 10% OVA aerosol. For inhibition experiments, sense or antisense BLT2 (1.6 mg/kg) was injected intravenously 24 h and then 1 h before the 10% OVA challenge. The mice were then killed on day 27 to assess asthmatic phenotypes. Antisense BLT2 oligonucleotide (5′-[…]-3′ (SEQ ID NO: 15)), sense BLT2 oligonucleotide (5′-[…]-3′ (SEQ ID NO: 16)).
Total RNA was extracted from lung samples using Easy-blue RNA extraction reagent (Intron, Korea). […] For the semiquantitative analysis of transcripts, the optimal PCR conditions were first determined by linear amplification of glyceraldehyde-3-phosphate dehydrogenase (GAPDH). […]

Another data set has as its system OVA-challenged mice. In words: Recruitment of CD4+ and CD8+ T cells into BAL fluid (flow cytometry). It counts as in vivo, mouse. The conditions noted are these: BAL fluid 12 hr after 10% OVA challenge. The source says:
FIGS. 8a and 8b show recruitment of T lymphocytes into airways. FIG. 8a depicts FACS analysis showing recruitment of CD4+ T cells into the BAL fluid of mice 12 hr after aerosol OVA challenge. FIG. 8b depicts FACS analysis showing recruitment of CD8+ T cells into the BAL fluid of mice 12 hr after aerosol OVA challenge. BAL fluid was collected 12 hr after 10% OVA challenge and washed with PBS. The leukocytes present were stained with FITC-conjugated anti-mouse TCR chain and PE-cy5 anti-mouse CD8a or PE rat anti-mouse CD4 after blocking with anti-FcRyantibody. Samples were then analyzed by flow cytometry to assess T lymphocyte recruitment. Data are means±SEM (n=6 in each group). *P<0.05 vs. OVA/asBLT2. For flow cytometric analysis, the cells in the BAL fluid were suspended in 50 μl of PBS containing 0.01% sodium azide and 0.1% BSA. BAL leukocytes were incubated for 30 min with 2.4G2 anti-FcγIII/II receptor (BD PharMingen) and stained for 30 min at 4° C. with FITC-conjugated anti-mouse TCR. chain (BD PharMingen) and PE-cy5 anti-mouse CD8a (BD PharMingen) or PE rat anti-mouse CD4 (BD PharMingen). Cytofluorimetry was performed with a FACS Caiibur™ (Becton Dickinson, Franklin Lakes, N.J.), and the results were analyzed with CellQuest software (Becton-Dickinson).
On the technique in general: A flow cytometer gives signals particle by particle.

Another data set relates to Rac. The experiment in a line: Endogenous Rac expression in lung tissue (Western blot). It is filed as in vivo, mouse. The conditions noted are these: oligonucleotides injected into tail veins, mice sacrificed after 12 hr. The source says: FIGS. 10a and 10b show activation of Rac in the lung tissue by OVA provocation and inhibition of endogenous Rac expression by antisense Rac oligonucleotide treatment. Lung samples were homogenized with micropestle and washed with PBS twice. FIG. 10a depicts Western blot analysis of Rac expression in mouse model of asthma. For membrane protein preparation, cells were suspended in Buffer A and cells were ruptured by passing through 21-G syringe. After ultracentrifugation, protein samples in pelleted membrane fraction were dissolved with buffer A containing 1% Triton X-100. FIG. 10b depicts Western blot analysis of Rac expression in mouse model of asthma administered with asRac. For whole cell lysate preparation, cells from the lung tissues of buffer, control Rac oligonucleotide or antisense Rac oligonucleotide injected mice were suspended with lysis buffer and incubated for 20 min. After centrifugation of the samples, protein quantification was carried out using Bradford reagent and Western blot analysis was performed.
Oligonucleotides, from Genotech Co. (Korea), were synthesized with a phosphorothioate backbone to improve the resistance to endonuclease. The antisense oligonucleotide consisted of 17 nucleotides analogues to the 5′ end of the murine Rac mRNA sequence, which spans the translation initiation site. […]

Regarding `CCc1cc(C(C)=O)c(O)cc1OCCCCCC(C)(C)c1nnn[nH]1` [LY255283, 1-[5-ethyl-2-hydroxy-4-[[6-methyl-6-(1H-tetrazol-5-yl)heptyl]oxy]phenyl]-ethanone, reference compound], in data set [1], the IC50 was 260 nM. Also, in the data set on eosinophil, the “inhibition of eosinophil chemotaxis” value is on record as 80%.

Regarding “antisense BLT2: Antisense BLT2 oligonucleotide 5′-GCTCAGTAGTGTCTCATTCC-3′ (SEQ ID NO: 15) (listed as DNA, chemistry not fully specified)”, in the data set with BLT1 mRNA, the “BLT1 expression in the lung (mRNA)” value is recorded as “without interfering”. In addition, the “effect on T cell trafficking into airways” value in the data set on OVA-challenged mice was “no inhibitory effect”.

For “antisense Rac: phosphorothioate 17-mer to the 5′ end of murine Rac mRNA, 5′-CACTTGATGGCCTGCAT-3′ (SEQ ID NO: 22) (listed as DNA, chemistry not fully specified)”, the “endogenous expression of Rac in the lung tissues” value in the data set with Rac is “inhibited”.
